Results published in patent US8063225B2, “Tricyclic compound derivatives useful in the treatment of neoplastic diseases, inflammatory disorders and immunomodulatory disorders” (Chembridge Corporation, priority 2006, dated 2011).

What was measured:
[1] = molecular target: T1, IGF1R tyrosine kinase (Homo sapiens, UniProt P08069); test: IGF1R tyrosine kinase assay (Kinase-Glo ATP depletion or PT66/PT100 AlphaScreen); conditions: biochemical tyrosine kinase assay
T1 construct: 6×His- or GST-tagged kinase domain fragments of the corresponding RTKs expressed in baculovirus system; host or cells: baculovirus system
T1 sequence (P08069 999-1274 limits assumed): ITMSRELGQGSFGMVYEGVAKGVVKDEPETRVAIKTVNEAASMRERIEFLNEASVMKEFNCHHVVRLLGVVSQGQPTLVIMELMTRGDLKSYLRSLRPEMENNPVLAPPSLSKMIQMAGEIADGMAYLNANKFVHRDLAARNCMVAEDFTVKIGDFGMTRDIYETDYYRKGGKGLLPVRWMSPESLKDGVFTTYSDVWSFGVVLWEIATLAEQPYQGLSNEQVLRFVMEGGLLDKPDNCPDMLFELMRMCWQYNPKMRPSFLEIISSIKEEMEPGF
In short: (§1)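 Inhibition measured on recombinant RTK kinase domains phosphorylating poly(Glu-Tyr) at 10 μM ATP, either by ATP depletion luminescence (37 °C, 60 min) or by PT66/PT100 AlphaScreen with biotinylated substrate (RT, 30 min plus 60 min bead step). For Alk, InsR and Jak2, enzyme titrated to ≤30% ATP consumption; IC50 from nonlinear regression.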

[2] = molecular target: T2, InsR (Homo sapiens, UniProt P06213); test: Tyrosine kinase assay (Kinase-Glo or AlphaScreen), InsR; conditions: biochemical tyrosine kinase assay
T2 construct: 6×His- or GST-tagged kinase domain fragments of the corresponding RTKs expressed in baculovirus system; host or cells: baculovirus system
T2 sequence (P06213 1023-1298 limits assumed, species assumed): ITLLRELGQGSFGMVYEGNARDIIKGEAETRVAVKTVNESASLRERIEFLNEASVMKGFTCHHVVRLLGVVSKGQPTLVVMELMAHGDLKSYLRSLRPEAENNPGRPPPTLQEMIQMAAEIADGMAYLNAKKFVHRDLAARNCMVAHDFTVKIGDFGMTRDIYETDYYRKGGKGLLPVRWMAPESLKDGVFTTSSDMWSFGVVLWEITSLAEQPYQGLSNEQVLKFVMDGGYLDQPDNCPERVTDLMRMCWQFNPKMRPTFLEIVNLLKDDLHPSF
In short: as §1

[3] = molecular target: T3, Alk (Homo sapiens, UniProt Q9UM73); test: Tyrosine kinase assay (Kinase-Glo or AlphaScreen), Alk; conditions: biochemical tyrosine kinase assay
T3 construct: 6×His- or GST-tagged kinase domain fragments of the corresponding RTKs expressed in baculovirus system; host or cells: baculovirus system
T3 sequence (Q9UM73 1116-1392 limits assumed, species assumed): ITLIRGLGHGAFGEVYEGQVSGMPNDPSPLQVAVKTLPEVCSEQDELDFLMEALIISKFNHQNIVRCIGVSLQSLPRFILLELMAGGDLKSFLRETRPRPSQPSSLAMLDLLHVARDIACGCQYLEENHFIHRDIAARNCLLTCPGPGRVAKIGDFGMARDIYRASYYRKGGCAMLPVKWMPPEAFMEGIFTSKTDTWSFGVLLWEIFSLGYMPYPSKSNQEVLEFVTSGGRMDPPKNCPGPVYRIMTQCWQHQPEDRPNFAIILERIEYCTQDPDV
In short: as §1

[4] = molecular target: T4, Jak2 (Homo sapiens, UniProt O60674); test: Tyrosine kinase assay (Kinase-Glo or AlphaScreen), Jak2; conditions: biochemical tyrosine kinase assay
T4 construct: 6×His- or GST-tagged kinase domain fragments of the corresponding RTKs expressed in baculovirus system; host or cells: baculovirus system
T4 sequence (O60674 849-1124 limits assumed, species assumed): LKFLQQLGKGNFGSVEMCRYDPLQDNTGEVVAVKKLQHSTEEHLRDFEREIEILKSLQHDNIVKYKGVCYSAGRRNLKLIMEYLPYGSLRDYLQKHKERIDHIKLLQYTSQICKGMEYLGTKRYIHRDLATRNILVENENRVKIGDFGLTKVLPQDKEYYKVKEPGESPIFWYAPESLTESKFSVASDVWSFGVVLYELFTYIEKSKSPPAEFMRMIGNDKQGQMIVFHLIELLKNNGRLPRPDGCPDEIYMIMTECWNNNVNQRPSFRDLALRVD
In short: as §1

[5] = molecular target: T5, IGF1 receptor (Homo sapiens, UniProt P08069); test: ELISA-based assay of IGF1 receptor autophosphorylation inhibition in cells; assay type: cell-based; conditions: IGF1R phosphorylation inhibition in MCF7 cells
T5 construct: MCF7 human breast cancer cells expressing IGF1 receptor; endogenous in cells; host or cells: MCF7 human breast cancer cells
T5 sequence (P08069 741-1367 limits assumed): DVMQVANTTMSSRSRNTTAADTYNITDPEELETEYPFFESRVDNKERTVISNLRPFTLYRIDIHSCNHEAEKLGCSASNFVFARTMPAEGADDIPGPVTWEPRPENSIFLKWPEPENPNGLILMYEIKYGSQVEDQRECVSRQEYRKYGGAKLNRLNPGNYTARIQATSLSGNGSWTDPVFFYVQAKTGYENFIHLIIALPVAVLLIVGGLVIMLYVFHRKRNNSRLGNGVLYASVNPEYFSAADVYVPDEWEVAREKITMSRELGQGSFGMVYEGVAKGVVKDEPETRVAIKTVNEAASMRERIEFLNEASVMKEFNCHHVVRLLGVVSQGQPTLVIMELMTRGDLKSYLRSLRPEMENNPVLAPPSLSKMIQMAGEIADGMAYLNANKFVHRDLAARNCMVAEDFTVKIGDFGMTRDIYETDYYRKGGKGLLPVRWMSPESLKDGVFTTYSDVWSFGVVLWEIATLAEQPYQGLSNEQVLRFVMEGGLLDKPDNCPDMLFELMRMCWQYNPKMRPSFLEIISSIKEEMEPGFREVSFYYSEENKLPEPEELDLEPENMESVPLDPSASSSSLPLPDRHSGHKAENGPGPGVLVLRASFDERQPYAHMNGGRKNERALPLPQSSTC
T5 sequence (P08069 31-736 partner limits assumed): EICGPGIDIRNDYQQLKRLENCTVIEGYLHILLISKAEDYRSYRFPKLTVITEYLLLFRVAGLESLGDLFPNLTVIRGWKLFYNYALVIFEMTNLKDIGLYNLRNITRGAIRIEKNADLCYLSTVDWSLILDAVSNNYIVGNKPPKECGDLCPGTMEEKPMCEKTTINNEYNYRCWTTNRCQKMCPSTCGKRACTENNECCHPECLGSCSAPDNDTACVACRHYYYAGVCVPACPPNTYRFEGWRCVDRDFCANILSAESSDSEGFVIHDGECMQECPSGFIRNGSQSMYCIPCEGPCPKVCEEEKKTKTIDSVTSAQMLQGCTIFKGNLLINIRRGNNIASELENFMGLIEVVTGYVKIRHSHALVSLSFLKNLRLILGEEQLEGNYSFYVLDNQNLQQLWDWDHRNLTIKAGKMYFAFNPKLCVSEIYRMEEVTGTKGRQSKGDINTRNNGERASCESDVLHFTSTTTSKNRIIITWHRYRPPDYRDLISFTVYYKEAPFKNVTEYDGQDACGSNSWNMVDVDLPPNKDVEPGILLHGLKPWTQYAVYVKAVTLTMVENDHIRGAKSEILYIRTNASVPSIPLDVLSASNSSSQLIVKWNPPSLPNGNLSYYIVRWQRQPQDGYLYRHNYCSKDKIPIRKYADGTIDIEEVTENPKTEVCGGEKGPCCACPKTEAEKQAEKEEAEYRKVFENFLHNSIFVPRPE
Protocol: In another embodiment, compounds that interact with the IGF1R kinase domain are tested in a cell-based assay system. In accordance with this embodiment, cells expressing a full-length IGF1 receptor or a fragment thereof containing the IGF1R kinase domain, are contacted with a candidate or a control compound and the ability of the compound to block tyrosine kinase activity of IGF1R within a cell is determined. This assay may be used to screen a single compound or a large library of candidate compounds. Typically, the cells or cell lines are of mammalian origin and they can express the IGF1 receptor, or functional IGF1R kinase domain fragment, endogenously or be genetically engineered to express the IGF1R, or functional fragment thereof. The ability of the candidate compound to inhibit IGF1R kinase activity can be determined by methods known to those skilled in the art. For example, the inhibition can be determined by ELISA-type assay or Western blot analysis with cell lysates or immunoprecipitated IGF1R receptor using various anti-IGF1R and anti-phosphotyrosine antibodies.
In general, cells expressing IGF1R are treated with modulators (i.e., inhibitors or activators) of IGF1R kinase activity and cell lysates are produced from these treated cells. IGF1Rs are isolated from the lysate by immunoprecipitation and analyzed for phosphotyrosine content. Alternatively, or in addition, cellular protein substrates phosphorylated by IGFR may be immunoprecipitated from the lysates and their degree of tyrosine phosphorylation determined.
MCF7 human breast cancer cells expressing IGF1 receptor or an engineered […] fibroblast cell line NIH 3T3 overexpressing full-length IGF1R are an exemplary cellular models in which to perform such assays. Such cells may be maintained in DMEM medium supplemented with 10% fetal bovine serum (FBS), 4% L-glutamine, 1% antibiotic solution (penicillin-Streptomycin) in a humidified atmosphere of 95% air and 5% CO2 at 37° C. Confluent cells in T175 cell culture flasks are incubated overnight with serum-free DMEM medium. After the serum starvation step, the cells are detached and split into a standard 96-well cell culture plate (one T175 flask per plate, 30 μl of cell suspension per plate well). Tested inhibitors from their 10 mM stock solutions in DMSO are subsequently added at various concentrations in serum-free DMEM medium for 1 hour incubation at 37° C. in CO2-incubator; total DMSO concentration in both treated and control wells is adjusted to 1%. Cells are then stimulated for 10 minutes with 100 nM IGF-1 added in 30 μl DMEM. After treatment, cells are lysed by addition of 30 μl of 4× lysis buffer (phosphate-buffered saline (PBS), 2% Triton-X100, 1 mM phenylmethylsulphonyl fluoride (PMSF) and 8 mM activated orthovanadate), mixing and incubation for 15 minute at room temperature. To prepare assay plates, 96-well ELISA Plates (Pierce Chemical, Reacti-bind plates) were coated by goat-anti-rabbit Fc antiserum by adding 0.25 μg antiserum per well in 0.2M sodium bicarbonate buffer per well and incubating overnight at 4° C. After incubation, the plate is washed three times by PBS with 0.02% Tween-20, supplied with 25 ng/50 μl per well of anti-IGF1R antibody (C-20, Santa Cruz Biotechnology) and incubated for several hours to overnight. Prior to the addition of the prepared cellular lysates, the antibody solution is aspirated, wells washed with PBS and supplied with 25 μl per well of Starting Block buffer (Pierce Chemical).
To measure tyrosine phosphorylation of the beta-subunits of the IGF1R, 25-50 μl of the lysates are transferred from the stimulation plate to the wells of the prepared assay plate and incubated overnight at 4° C. The wells are washed with PBS with 0.02% Tween-20, incubated with 50 μl of 1:3000 dilution of anti-phosphotyrosine 4G10-HRP antibody conjugate (Upstate Biotechnology) for 2 hours at room temperature and washed again. […]

[6] = system: H929 (multiple myeloma); test: Cell proliferation inhibition, Cell Titer-Glo, H929; assay type: cell-based; conditions: Homo sapiens, NCI-H929; cell proliferation assay, H929 cells
Protocol: IGF1R and other tyrosine kinase inhibitors can inhibit the proliferation of certain cancer cell lines indicating their possible therapeutic utility for treating the corresponding cancer types. Cancer cell lines of interest and control normal lines, including CHO, HEK293, BA/F3, MM1, H929, COLO205, PC3, DU145, MCF7, Panc1, ACHN, Hep G2, H460, K562, TT, U87-G, CAOV-3, SK-MEL5, Karpas 299, are plated in white, clear-bottomed 384-well cell culture plates at 2500-5000 cells per well and supplied with dilutions of tested compounds After a desired period of time (typically 3 days), the number of viable cells is quantitated by using Cell Titer-Glo Luminescent Cell Viability Assay (Promega), a cell proliferation assay system based on detection of total amount of ATP present as a measure of cell metabolic activity. The plated cells are mixed with the Cell Titer-Glo developing reagent and counted in a luminescence multiwell plate reader according to the standard manufacturer's protocol to generate IC50 curves for cell proliferation inhibition.
IGF1R and other tyrosine kinase inhibitors can inhibit the proliferation of certain cancer cell lines indicating their possible therapeutic utility for treating the corresponding cancer types. Cancer cell lines of interest and control normal lines, including CHO, HEK293, BA/F3, COLO205, PC3, DU145, MCF7, Panc1, ACHN, Hep G2, H460, K562, TT, U87-MG, CAOV-3, SK-MEL5, Karpas 299 and human multiple myeloma cell lines H929, MM1s, MM1r, UTMC2, CPM2, KMS11, My5, KMS12PE, My7, JJN3, KMS18, U266, SKMM2, RPMI-8226 are plated in white, clear-bottomed 384-well cell culture plates at 2500-5000 cells per well and supplied with dilutions of tested compounds After a desired period of time (typically 3 days), the number of viable cells is quantitated by using Cell Titer-Glo Luminescent Cell Viability Assay (Promega), a cell proliferation assay system based on detection of total amount of ATP present as a measure of cell metabolic activity. The plated cells are mixed with the Cell Titer-Glo developing reagent and counted in a luminescence multiwell plate reader according to the standard manufacturer's protocol to generate IC50 curves for cell proliferation inhibition. Results are typically reported as percent of growth (% viability =(OD72h(compound)−ODday0))/(OD72h(no compound)−ODday0). Alternatively, viable cells are quantitated by using the conventional colorimetric MTT assay. The MTT assay is based on the cleavage of the yellow tetrazolium salt MTT to purple formazan crystal by metabolic active cells. The formazan is then solubilized, and the concentration determined by optical density at 570 nm. The cells plated and incubated with a compound as described above are supplemented with the solution of MTT and incubated for 2-3 hours. The growth medium is removed and dimethyl sulfoxide is added into each well to dissolve the formazan. The absorbance is measured on an ELISA plate reader with a test wavelength of 570 nm and a background subtraction wavelength of 630 nm to obtain sample signal (OD570-OD630). […] The results are reported in terms of IC50 value for a particular compound and a cell line in the standard 3-day proliferation assay using Cell Titer-Glo. […] The results are reported in terms of IC50 value for a particular compound and a cell line in the standard 3-day proliferation assay using MTT assay.

[7] = system: Ba/F3; test: Cell proliferation inhibition, Cell Titer-Glo, Ba/F3; assay type: cell-based; conditions: Mus musculus, BaF3; cell proliferation assay, Ba/F3 cells
In short: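 This standard 3-day proliferation assay used Ba/F3 cells plated in 384-well white plates with clear bottoms at 2500-5000 cells per well and treated with compound dilutions. Viable cell number was determined by mixing in Cell Titer-Glo developing reagent according to the manufacturer's protocol and counting luminescence. Percent viability relative to day 0 and untreated wells produced IC50 curves.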

[8] = system: Karpas-299; test: Cell proliferation inhibition, Cell Titer-Glo, Karpas-299; assay type: cell-based; conditions: Homo sapiens; cell proliferation assay, Karpas-299 cells
In short: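 In this standard 3-day proliferation assay, Karpas 299 cells plated at 2500-5000 cells per well in 384-well white, clear-bottomed plates were treated with compound dilutions. Cell Titer-Glo developing reagent was added following the manufacturer's protocol, luminescence reflecting ATP content was read on a multiwell plate reader, and IC50 curves were generated.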

[9] = system: K562; test: Cell proliferation inhibition, Cell Titer-Glo, K562; assay type: cell-based; conditions: Homo sapiens; cell proliferation assay, K562 cells
In short: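 Proliferation inhibition in human K562 cells was assessed in a standard 3-day assay. Cells (2500-5000 per well) in 384-well white, clear-bottomed plates received serial compound dilutions, then Cell Titer-Glo reagent was added per the manufacturer's protocol. Luminescence reflecting ATP content of metabolically active cells was counted in a multiwell reader, and IC50 curves were generated.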

SMILES | IC50 [1] [µM] | IC50 [2] [µM] | IC50 [3] [µM] | IC50 [4] [µM] | IC50 [5] [µM] | IC50 [6] [µM] | IC50 [7] [µM] | IC50 [8] [µM] | IC50 [9] [µM]
O=C1c2cc3nc(-c4c(NC[C@@H](O)c5cccc(Cl)c5)cc[nH]c4=O)[nH]c3cc2C(=O)N1CC1CCN(CCO)CC1 [compound 13] | < 0.5 | < 0.5 | 0.5 to 5 | 0.5 to 5 | 0.5 to 5 | – | – | – | –
CN1CCCC1CCN1C(=O)c2cc3nc(-c4c(NC[C@@H](O)c5cccc(Cl)c5)cc[nH]c4=O)[nH]c3cc2C1=O (stereo partly drawn) [compound 18] | < 0.5 | 0.5 to 5 | 0.5 to 5 | 0.5 to 5 | > 15 | – | – | – | –
CN1CCC(N2C(=O)c3cc4nc(-c5c(NC[C@H](O)COc6ccc(F)cc6)cc[nH]c5=O)[nH]c4cc3C2=O)CC1 [compound 22] | 0.5 to 5 | 0.5 to 5 | 0.5 to 5 | 0.5 to 5 | > 15 | – | – | – | –
O=C1c2cc3nc(-c4c(NC[C@@H](O)c5cccc(Cl)c5)cc[nH]c4=O)[nH]c3cc2C(=O)N1CCCN1CCOCC1 [compound 12] | > 15 | > 15 | > 15 | > 15 | 0.5 to 5 | – | – | – | –
Cc1cc(OCC(O)CNc2cc[nH]c(=O)c2-c2nc3cc4c(cc3[nH]2)C(=O)N(C2CCN(C)CC2)C4=O)ccc1Cl (stereo not drawn) [compound 10] | 5 to 15 | 0.5 to 5 | > 15 | 5 to 15 | > 15 | – | – | – | –
CN1CCN(CCCN2C(=O)c3cc4nc(-c5c(NC[C@@H](O)c6cccc(Cl)c6)cc[nH]c5=O)[nH]c4cc3C2=O)CC1 [compound 19] | < 0.5 | 0.5 to 5 | 0.5 to 5 | 0.5 to 5 | > 15 | – | – | – | –
CN1CCC(N2C(=O)c3cc4nc(-c5c(NCC(O)COc6ccccc6)cc[nH]c5=O)[nH]c4cc3C2=O)CC1 (stereo not drawn) [compound 23] | 0.5 to 5 | 0.5 to 5 | 5 to 15 | 0.5 to 5 | 5 to 15 | – | – | – | –
CN1CCC(N2C(=O)c3cc4nc(-c5c(N[C@@H](CO)Cc6c[nH]cn6)cc[nH]c5=O)[nH]c4cc3C2=O)CC1 [compound 3] | 0.5 to 5 | 0.5 to 5 | 5 to 15 | > 15 | – | 5 to 15 | > 15 | 5 to 15 | 5 to 15
CN1CCC(N2C(=O)c3cc4nc(-c5c(NCCc6c[nH]cn6)cc[nH]c5=O)[nH]c4cc3C2=O)CC1 [compound 4] | 0.5 to 5 | 0.5 to 5 | 0.5 to 5 | 0.5 to 5 | – | 5 to 15 | 5 to 15 | 0.5 to 5 | 5 to 15
Cc1ccc(OC[C@H](O)CNc2cc[nH]c(=O)c2-c2nc3cc4c(cc3[nH]2)C(=O)N(C2CCN(CCCO)CC2)C4=O)c(C)c1 [compound 129] | < 0.5 | < 0.5 | 0.5 to 5 | 0.5 to 5 | – | 5 to 15 | 5 to 15 | 5 to 15 | 5 to 15
O=C1c2cc3nc(-c4c(NC[C@@H](O)c5cccc(Cl)c5)cc[nH]c4=O)[nH]c3cc2C(=O)N1CCN1CCCC1 [compound 17] | – | – | – | – | > 15 | – | – | – | –
